# Values of other authors as cited in US7858118B2, “Extended release composition containing Tramadol” (Galephar Pharmaceutical Research, Inc., priority 2001, dated 2010).
# Where two headings read alike, the source gives them in different places.
# Tests used:
# [1] = system: μ-opioid receptors
# [2] = animal models
# [3] = after oral administration of immediate release dosage form
# [4] = in words
# [5] = single 100 mg oral dose, healthy subjects
Structure (SMILES),potency relative to Tramadol in u-opioid binding [1] [times],potency relative to Tramadol in producing analgesia [2],maximum plasma concentration of the [+]-enantiomer of Tramadol (100 mg dose) [ng/mL],maximum plasma concentration of the [−]-enantiomer of Tramadol (100 mg dose) [ng/mL],"maximum plasma concentration of the [−]-M1 enantiomer (100 mg dose of Tramadol, first value of the pair) [ng/mL]","maximum plasma concentration of the other M1 enantiomer (not given) (100 mg dose of Tramadol, second value of the pair) [ng/mL]",maximum plasma concentration at steady state (100 mg four times daily) [ng/mL],time to steady state (100 mg four times daily) [days],mean absolute bioavailability (100 mg oral dose),"time to peak plasma concentrations (immediate release, oral (b6))",plasma half-life (multiple dosing) [h],"effect of food on rate or extent of absorption (oral, immediate release)",mean peak plasma concentration of the active mono-O-desmethyl metabolite (single 100 mg oral dose of Tramadol) [ng/mL],"time of peak plasma concentration of the mono-O-desmethyl metabolite (single 100 mg oral dose of Tramadol, post-dose)",mean peak plasma concentration of Tramadol [5] [ng/mL],time of mean peak plasma concentration of Tramadol [5],plasma half-life (single dosing) [h],onset of analgesia [3] [h],solubility in water and body fluids [4]
"CN(C)C[C@H]1CCCC[C@]1(O)c1cccc(O)c1 [Example M1, O-desmethyl tramadol]",200,up to 6 times,,,,,,,,,,,,,,,,,
COc1cccc(C2(O)CCCCC2CN(C)C)c1 (stereo not shown) [Tramadol],,,168 ± 36,148 ± 33,35 ± 10,26 ± 13,592 ± 177,2,≈ 75%,≈ 2 hours,7,does not significantly affect,55 ± 20,≈ 3 hours,308 ± 78,≈ 2 hours,6,≤ 1,extremely high solubility
